Reference: publication PMC10740831, “Synthesis, Hydrolytic Stability and In Vivo Biological Study of Bioconjugates of the Tetrapeptides FELL Containing Pyrrole Moiety” (Biomedicines, 2023)
“Also recorded” adds a separate entry of the source. Peptide text beside a SMILES is read from it. * marks the point of attachment. X1 = CCOC(=O)c1c(C)[nH]c(C(=O)*)c1C; X2 = CCOC(=O)c1[nH]c(C)c(C(=O)*)c1C

What was measured:
male Wistar rats = assay: Nociceptive Paw Pressure test (Randall–Selitto test), analgesic activity; assay type: in vivo, rat; settings: 0.25 mg/kg i.p.; for course of analgesic activity over time (in words) / analgesic activity (paw pressure thresholds): Figure 6; for analgesic activity (paw pressure thresholds): male Wistar rats, 8–10 per group, measured every 10 min from 10th to 50th min; for highest analgesic activity reached, as percent of that of the parent acid: BB20A vs acid A, BB19B vs acid B
Method: The male Wistar rats (180–200 g) were used for all experiments. All animals were kept at around 22 °C and under normal conditions. The experimental procedures are realized in the interval 10:00 a.m. to 1:00 p.m. and are approved by the Research Ethics Commission of the Medical University-Sofia.
(§1) Several groups of experimental animals were used. Each group contains 8–10 rats: • The control group receives 0.2 mL of saline intraperitoneally injected (i.p.); • Six experimental groups receiving one of the 6 tested substances (0.25 mg/kg, i.p.)—pyrrole acid A, pyrrole acid B, BB19A, BB19B, BB20A, and BB20B; • Four experimental groups receiving Naloxone (1 mg/kg, i.p.) before the administration of the newly synthesized bioconjugates BB19A, BB19B, BB20A, and BB20B; • Four experimental groups receiving AM251 (1.25 mg/kg, i.p.) before the administration of the newly synthesized bioconjugates BB19A, BB19B, BB20A, and BB20B.
(§2) An analgesiometer was used to measure the specific changes in the mechanical nociceptive thresholds (PPT) of experimental animals). A pressure was applied to the hind-paw and the value (g) required to elicit a nociceptive response (such as squeak or struggle) was taken as the mechanical nociceptive threshold. A cut-off value of 500 g was used to prevent damage of the paw. The targeted compounds were administrated and further nociception was evaluated each 10 min from the 10th min until the 50th min.
(§3) The results were statistically assessed by one-way analysis of variance followed by Newman-Keuls post hoc comparison test. One-Way ANOVA has been used to analyze the data. Values are represented in arbitrary units (AU) according to the scale, as mean ± S.E.M. Values of p < 0.05 were considered to indicate statistical significance.

cannabinoid receptor = assay: Paw pressure test after AM251 pretreatment; assay type: in vivo, rat; settings: AM251 1.25 mg/kg i.p. before bioconjugate 0.25 mg/kg i.p.; for time points with paradoxically higher analgesia after AM251 pretreatment than without pretreatment: Figure 7
Method: as §1
(§4) Pretreatments with the non-selective opioid receptor antagonist Naloxone or the cannabinoid receptor antagonist AM251 were performed in order to estimate the types of receptors engaged in the effects observed—respectively, the opioid or the cannabinoid receptor [35].
as §2, §3

opioid receptor = assay: Paw pressure test after Naloxone pretreatment; assay type: in vivo, rat; settings: Naloxone 1 mg/kg i.p. before bioconjugate 0.25 mg/kg i.p.; compared with no pretreatment; Figure 7
Method: as §1, §4, §2, §3

[1] = previously evaluated in vivo; cited from earlier work
Description: Parent compound FELL (Phe-Glu-Leu-Leu-OH) and four analogs of the tetrapeptide were previously evaluated in vivo for their analgesic activity.

[2] = tested on: white blood cell accumulation in the bronchoalveolar fluid; settings: cited from earlier work
Description: In this context, tetrapeptide sequence H-FELL-OH is known from the literature as an anti-inflammatory agent.

Question: For `CCOC(=O)c1c(C)[nH]c(C(=O)N[C@@H](Cc2ccccc2)C(=O)N[C@@H](CCC(=O)O)C(=O)N[C@@H](CC(C)C)C(=O)N[C@@H](CC(C)C)C(N)=O)c1C` [BB19A, A-Phe-Glu-Leu-Leu-NH2] (X1-FELL-NH2), which “course of analgesic activity over time (in words)” value (from here on “course … over time (in words)”) (male Wistar rats; 10th to 50th min) is on record?
Answer: biphasic activity

Question: And the “analgesic activity on the 50th min compared with parent pyrrole acid” value (male Wistar rats; 50th min)?
Answer: exceeded the parent alpha acid

Question: And the “analgesic activity (paw pressure thresholds)” value (male Wistar rats)?
Answer: exhibited analgesic activity

Question: And the “time points with paradoxically higher analgesia after AM251 pretreatment than without pretreatment” value (cannabinoid receptor)?
Answer: 10th min

Question: And the “analgesic activity after opioid receptor blockade (Naloxone pretreatment), in words” value (opioid receptor)?
Answer: significant analgesia that even initially exceeded that of the substances without the pretreatment; also recorded: naloxone-independent in the first phase and naloxone-dependent in the second

Question: Which “course … over time (in words)” value (male Wistar rats; 10th to 50th min) does the source give for `CCOC(=O)c1c(C)[nH]c(C(=O)N[C@@H](Cc2ccccc2)C(=O)N[C@@H](CCC(=O)O)C(=O)N[C@@H](CC(C)C)C(=O)N[C@@H](CC(C)C)C(=O)O)c1C` [BB20A, A-Phe-Glu-Leu-Leu-OH] (X1-FELL-OH) here?
Answer: decreased to control values

Question: And the “analgesic activity (paw pressure thresholds)” value (male Wistar rats)?
Answer: exhibited analgesic activity

Question: And the “highest analgesic activity reached, as percent of that of the parent acid” value (male Wistar rats)?
Answer: more than 87%

Question: And the “involvement of cannabinoid receptors in the analgesic effect (AM251 pretreatment), in words” value (cannabinoid receptor)?
Answer: they “turn on” at a later stage—after the 20th minute

Question: And the “time points with paradoxically higher analgesia after AM251 pretreatment than without pretreatment” value (cannabinoid receptor)?
Answer: 10th min

Question: And the “analgesic activity after opioid receptor blockade (Naloxone pretreatment), in words” value (opioid receptor)?
Answer: Opioid receptors appear to be involved

Question: With `CCOC(=O)c1[nH]c(C)c(C(=O)N[C@@H](Cc2ccccc2)C(=O)N[C@@H](CCC(=O)O)C(=O)N[C@@H](CC(C)C)C(=O)N[C@@H](CC(C)C)C(=O)O)c1C` [BB20B, B-Phe-Glu-Leu-Leu-OH] (X2-FELL-OH) as the compound, how does the “analgesic activity / PPTs on the 10th min compared with parent pyrrole acid” value (male Wistar rats) read?
Answer: equivalent to the parent beta acid’s ones

Question: And the “course … over time (in words)” value (male Wistar rats; 10th to 50th min)?
Answer: slowly decreased to control levels

Question: What about the “analgesic activity (paw pressure thresholds)” value (male Wistar rats) of the same compound?
Answer: exhibited analgesic activity

Question: And the “involvement of cannabinoid receptors in the analgesic effect (AM251 pretreatment), in words” value (cannabinoid receptor)?
Answer: Cannabinoid receptors are also involved

Question: And the “analgesic activity after opioid receptor blockade (Naloxone pretreatment), in words” value (opioid receptor)?
Answer: Opioid receptors appear to be involved

Question: What does the source list for `CCOC(=O)c1c(C)[nH]c(C(=O)O)c1C` [acid A, 4-(Ethoxycarbonyl)-3,5-dimethyl-1H-pyrrole-2-carboxylic Acid]?
Answer: duration of short-lasting analgesic activity (male Wistar rats): about 10 min; time window of short-lasting analgesic activity (male Wistar rats): between the 10th and 20th min; decrease of analgesic activity until the end of the estimated time (male Wistar rats; up to 50th min): 56%

Question: For `CCOC(=O)c1[nH]c(C)c(C(=O)O)c1C` [acid B, 5-(Ethoxycarbonyl)-2,4-dimethyl-1H-pyrrole-3-carboxylic Acid], which “duration of short-lasting analgesic activity” value (male Wistar rats) is on record?
Answer: about 10 min

Question: What about the “time window of short-lasting analgesic activity” value (male Wistar rats) of the same compound?
Answer: between the 20th and 30th min

Question: And the “PPTs on the 50th min compared with controls” value (male Wistar rats; 50th min)?
Answer: almost equivalent to the controls’

Question: What does the source list for “B-Phe-Glu-Leu-Leu-NH2 [BB19B, bioconjugate of pyrrole acid B and tetrapeptide FELL-NH2]”?
Answer: analgesic activity / PPTs on the 10th min compared with parent pyrrole acid (male Wistar rats): more significant than the parent beta acid; variation of analgesic activity during the whole time of the experiment (male Wistar rats; 10th to 50th min): less than 7%; course of analgesic activity over time (in words) (male Wistar rats; 10th to 50th min): sustained analgesic activity; analgesic activity on the 50th min compared with parent pyrrole acid (male Wistar rats; 50th min): more significant than the parent beta acid; analgesic activity (paw pressure thresholds) (male Wistar rats): exhibited analgesic activity; highest analgesic activity reached, as percent of that of the parent acid (male Wistar rats): 64.4%; time points with paradoxically higher analgesia after AM251 pretreatment than without pretreatment (cannabinoid receptor): 10th, 20th, and 30th min; analgesic activity after opioid receptor blockade (Naloxone pretreatment), in words (opioid receptor): significant analgesia that even initially exceeded that of the substances without the pretreatment

Question: With “Phe-Glu-Leu-Leu-NH2 [C-terminal amide of the tetrapeptide FELL]” as the compound, how does the “analgesic activity over time (in words)” value [1] read?
Answer: gradually increased analgesic activity with time

Question: What does the source list for “Phe-Glu-Leu-Leu-OH [H-FELL-OH, parent tetrapeptide known as an anti-inflammatory agent]”?
Answer: analgesic activity over time (in words) [1]: constantly increasing analgesic activity for the total time of the evaluation; reduction of the total number of white blood cell accumulation in the bronchoalveolar fluid in lungs [2]: 51%
